Reference: ChEMBL document CHEMBL4265980, “Hemozoin inhibiting 2-phenylbenzimidazoles active against malaria parasites” (Eur J Med Chem, 2018)
pIC50: −log10 of the molar value. Activity calls are given as the source filed them. The calls are words filed in the database; no cut-off is given here.

What was measured:
Plasmodium falciparum [1] = experiment: Antiplasmodial activity against asexual erythrocyte stage of chloroquine-sensitive Plasmodium falciparum NF54 infected in human red blood cells after 48 hrs by lactate dehydrogenase assay; format: functional, organism-based; settings: for pIC50 / IC50: NF54, 48 h; for pIC50: read-out: IC50; for IC50: read-out: pIC50 (converted)
[2] = Inhibition of beta hematin formation after 5 to 6 hrs by NP40 detergent-based assay
[3] = Selectivity index, ratio of IC50 for CHO cells to IC50 for asexual erythrocyte stage of chloroquine-resistant Plasmodium falciparum Dd2 infected in human red blood cells; format: toxicity, cell-based; settings: Chinese hamster, read-out: Ratio IC50
[4] = Resistance index, ratio of IC50 for asexual erythrocyte stage of chloroquine-resistant Plasmodium falciparum Dd2 infected in human red blood cells to IC50 for asexual erythrocyte stage of chloroquine-sensitive Plasmodium falciparum NF54 infected in human red blood cells; format: functional
CHO = experiment: Cytotoxicity against CHO cells by MTT assay; format: cell-based; settings: Cricetulus griseus
[5] = Selectivity index, ratio of IC50 for CHO cells to IC50 for asexual erythrocyte stage of chloroquine-sensitive Plasmodium falciparum NF54 infected in human red blood cells; format: toxicity, cell-based; settings: Chinese hamster, read-out: Ratio IC50
Plasmodium falciparum [6] = experiment: Antiplasmodial activity against Plasmodium falciparum NF54 assessed as decrease in hemozoin levels after 32 hrs by spectrophotometric analysis; format: functional, organism-based
Plasmodium falciparum [7] = experiment: Antiplasmodial activity against asexual erythrocyte stage of chloroquine-resistant Plasmodium falciparum Dd2 infected in human red blood cells after 48 hrs by lactate dehydrogenase assay; format: functional, organism-based; settings: Dd2, 48 h
Plasmodium falciparum [8] = experiment: Antiplasmodial activity against Plasmodium falciparum NF54 assessed as increase in undigested hemoglobin levels after 32 hrs by spectrophotometric analysis; format: functional, organism-based

Structure (SMILES)	pIC50 (Plasmodium falciparum [1])	IC50 (Plasmodium falciparum [1]) [µM]	1/IC50 [2] [µM⁻¹]	pIC50 [2]	further results
O=C(Nc1ccccc1)c1cncc(Br)c1					Activity (Plasmodium falciparum [1]): inactive; inhibition [2]: inactive
O=C(Nc1ccc(-c2nc3ccccc3[nH]2)cc1)c1cccc(C(F)(F)F)c1	5.87	1.35	0.0356	4.55	
O=C(Nc1ccc(-c2nc3ccccc3[nH]2)cc1)c1cccs1	5.14	7.24	0.0236	4.37	
Nc1ccc(-c2nc3ccccc3[nH]2)cc1					Activity (Plasmodium falciparum [1]): inactive; inhibition [2]: inactive
O=C(Nc1ccc(-c2nc3ccccc3[nH]2)cc1)c1cncc(Br)c1	6.39	0.407	0.0313	4.49	selectivity ratio [3]: 197; Ratio IC50 [4]: 2.4; pIC50 (CHO): 3.72; selectivity ratio [5]: 461; Activity (Plasmodium falciparum [6]): Active; pIC50 (Plasmodium falciparum [7]): 6.02; Activity (Plasmodium falciparum [8]): Active
CC(C)(C)c1ccc(C(=O)Nc2ccc(-c3nc4ccccc4[nH]3)cc2)cc1	5.70	2	0.0028	3.45	
O=C(Nc1ccc(-c2nc3ccccc3[nH]2)cc1)c1cccc(Cl)c1	5.92	1.2	0.0398	4.60	
O=C(Nc1ccc(-c2nc3ccccc3[nH]2)cc1)c1cc([N+](=O)[O-])cc([N+](=O)[O-])c1	6.17	0.676	0.0752	4.88	selectivity ratio [3]: 665; Ratio IC50 [4]: 0.46; pIC50 (CHO): 3.69; selectivity ratio [5]: 308; pIC50 (Plasmodium falciparum [7]): 6.51
CC(=O)Nc1ccc(-c2nc3ccccc3[nH]2)cc1					Activity (Plasmodium falciparum [1]): inactive; inhibition [2]: inactive
O=C(Nc1ccc(-c2nc3ccccc3[nH]2)cc1)c1ccccc1		257	0.0003	2.41	
CC(=O)Nc1ccccc1					Activity (Plasmodium falciparum [1]): inactive; inhibition [2]: inactive
O=C(Nc1ccc(-c2nc3ccccc3[nH]2)cc1)c1ccco1	5.23	5.89	0.0119	4.08	
COc1ccccc1C(=O)Nc1ccc(-c2nc3ccccc3[nH]2)cc1	5.26	5.5	0.0257	4.41	
O=C(Nc1ccc(-c2nc3ccccc3[nH]2)cc1)c1cccnc1	4.94	11.5	0.0281	4.45	
O=C(Nc1ccc(-c2nc3ccccc3[nH]2)cc1)c1cccc(Br)c1	5.89	1.29	0.0408	4.61	
O=C(Nc1ccc(-c2nc3ccccc3[nH]2)cc1)c1ccccc1Cl	4.82	15.1	0.0262	4.42	
O=C(Nc1ccc(-c2nc3ccccc3[nH]2)cc1)c1cc(Cl)nc(Cl)c1	6.28	0.525	0.0595	4.77	selectivity ratio [3]: 541; Ratio IC50 [4]: 0.64; pIC50 (CHO): 3.74; selectivity ratio [5]: 347; pIC50 (Plasmodium falciparum [7]): 6.47
O=C(Nc1ccc(-c2nc3ccccc3[nH]2)cc1)c1cncc(C(F)(F)F)c1	6.10	0.794	0.0602	4.78	selectivity ratio [3]: 32; Ratio IC50 [4]: 1.4; pIC50 (CHO): 4.46; selectivity ratio [5]: 44; pIC50 (Plasmodium falciparum [7]): 5.96
CNC(=O)c1cncc(Br)c1					Activity (Plasmodium falciparum [1]): inactive; inhibition [2]: inactive
O=C(O)c1cncc(Br)c1					Activity (Plasmodium falciparum [1]): inactive; inhibition [2]: inactive
c1ccc2[nH]cnc2c1					Activity (Plasmodium falciparum [1]): inactive; inhibition [2]: inactive
O=C(Nc1ccc(-c2nc3ccccc3[nH]2)cc1)c1ccccc1[N+](=O)[O-]	4.91	12.3	0.0346	4.54	
O=C(Nc1ccc(-c2nc3ccccc3[nH]2)cc1)c1ccc(Cl)cc1	4.19	64.6	0.0006	2.75	
O=C(Nc1ccc(-c2nc3ccccc3[nH]2)cc1)c1ccc[nH]1	5.92	1.2	0.0215	4.33	
CC[C@H]1CN2CCc3cc(OC)c(OC)cc3[C@@H]2C[C@@H]1C[C@H]1NCCc2cc(OC)c(OC)cc21 [EMETINE]					pIC50 (CHO): 6.92
O=C(Nc1ccc(-c2nc3ccccc3[nH]2)cc1)c1ccc(Cl)cc1Cl	5.14	7.24	0.0111	4.05	
